This note sets out measurements from ChEMBL document CHEMBL3091433, “Structure-based design of substituted hexafluoroisopropanol-arylsulfonamides as modulators of RORc” (Bioorg Med Chem Lett, 2013).

A word on the EC50: it is the midpoint of the concentration-response curve.

Experiment [1] has as its target T1, Nuclear receptor ROR-gamma (Homo sapiens, UniProt P51449).
T1 sequence (P51449 whole entry): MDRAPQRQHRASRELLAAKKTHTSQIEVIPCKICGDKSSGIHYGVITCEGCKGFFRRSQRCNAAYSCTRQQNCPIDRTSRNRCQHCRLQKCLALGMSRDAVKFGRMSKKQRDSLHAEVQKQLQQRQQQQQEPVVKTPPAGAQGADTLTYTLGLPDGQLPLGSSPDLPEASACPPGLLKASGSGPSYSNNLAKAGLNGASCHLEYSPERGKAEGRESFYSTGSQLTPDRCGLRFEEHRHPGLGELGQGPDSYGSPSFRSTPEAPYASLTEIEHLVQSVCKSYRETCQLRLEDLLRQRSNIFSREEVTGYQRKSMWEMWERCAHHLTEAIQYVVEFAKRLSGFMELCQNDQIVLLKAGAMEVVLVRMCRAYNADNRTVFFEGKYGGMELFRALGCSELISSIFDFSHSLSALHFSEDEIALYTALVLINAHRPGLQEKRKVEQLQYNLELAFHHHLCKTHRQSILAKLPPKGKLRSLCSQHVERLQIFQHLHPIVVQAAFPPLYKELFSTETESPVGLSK
Description: Inverse agonist activity at N-terminal 6xHis-tagged human RORc ligand binding domain (241 to 486) expressed in bacterial expression system assessed as inhibition of SRC1 co-activator peptide recruitment after 3 hrs by TR-FRET analysis

Experiment [2] addresses T2, Oxysterols receptor LXR-beta (Homo sapiens, UniProt P55055).
T2 sequence (P55055 whole entry): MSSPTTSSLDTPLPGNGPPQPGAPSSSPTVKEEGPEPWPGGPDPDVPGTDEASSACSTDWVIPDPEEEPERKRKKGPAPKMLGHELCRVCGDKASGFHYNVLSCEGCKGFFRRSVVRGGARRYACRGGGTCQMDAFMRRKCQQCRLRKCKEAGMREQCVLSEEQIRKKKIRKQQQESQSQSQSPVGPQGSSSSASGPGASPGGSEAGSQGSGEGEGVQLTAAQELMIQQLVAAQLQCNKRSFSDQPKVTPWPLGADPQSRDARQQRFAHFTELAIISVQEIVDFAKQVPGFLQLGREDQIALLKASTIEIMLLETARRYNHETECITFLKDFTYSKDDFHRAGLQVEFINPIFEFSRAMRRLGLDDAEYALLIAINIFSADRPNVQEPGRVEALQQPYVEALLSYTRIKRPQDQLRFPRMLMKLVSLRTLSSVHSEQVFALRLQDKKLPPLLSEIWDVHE
Description: Agonist activity at GAL4-fused human LXRbeta expressed in HEK293T cells assessed as activation of basal transcriptional activity after 20 hrs by dual-glo luciferase reporter gene assay

The target in experiment [3] is T3, Nuclear receptor ROR-beta (Homo sapiens, UniProt Q92753).
T3 sequence (Q92753 whole entry): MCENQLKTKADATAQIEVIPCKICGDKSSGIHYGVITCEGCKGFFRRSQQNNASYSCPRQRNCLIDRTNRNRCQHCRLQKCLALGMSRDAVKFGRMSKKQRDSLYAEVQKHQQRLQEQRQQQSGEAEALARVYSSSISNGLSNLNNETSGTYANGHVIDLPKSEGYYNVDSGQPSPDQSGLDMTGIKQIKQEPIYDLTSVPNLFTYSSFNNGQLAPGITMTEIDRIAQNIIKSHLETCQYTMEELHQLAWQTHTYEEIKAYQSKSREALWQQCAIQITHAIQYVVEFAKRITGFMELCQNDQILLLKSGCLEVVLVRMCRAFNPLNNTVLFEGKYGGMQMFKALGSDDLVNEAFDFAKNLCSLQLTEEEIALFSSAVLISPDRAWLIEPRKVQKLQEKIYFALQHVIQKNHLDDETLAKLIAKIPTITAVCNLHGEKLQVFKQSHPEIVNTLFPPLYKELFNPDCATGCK
Kind of experiment: Inverse agonist activity at GAL4-fused human RORb expressed in HEK293T cells assessed as suppression of basal transcriptional activity after 20 hrs by dual-glo luciferase reporter gene assay. The experiment is classed as cell-based, HEK-293T. (In a reporter assay the amount or activity of a reporter protein is the signal.)

Experiment [4] relates to PBMC. Description: cells. To be noted: Homo sapiens, 48 h.
Experiment [5] relates to PBMC. Kind of experiment: Antiinflammatory activity in human PBMC assessed as inhibition of IL-17 production after 48 hrs by Sandwich ELISA relative to control. It is filed as functional.
For experiment [6], the system named is PBMC. Description: Inhibition of IFNgamma production in human PBMC after 48 hrs by Sandwich ELISA.
The subject of experiment [7] is PBMC. Description: Cytotoxicity against human PBMC assessed as effect on cell physiology after 48 hrs by CellTiter-Glo assay. In general terms: In ATP-based viability assays light output follows the ATP content of the culture.

Molecules are shown by their SMILES.

As for `CCN(c1ccc(C(O)(C(F)(F)F)C(F)(F)F)cc1)S(=O)(=O)c1ccccc1`, the values for the EC50 in experiment [1], in experiment [2] and in experiment [3] were 190 nM, 246 nM and 4000 nM, respectively.
For the compound `N#Cc1ccc(S(=O)(=O)N(CC(F)(F)F)c2ccc(C(O)(C(F)(F)F)C(F)(F)F)cc2)cc1`, the half-maximal effective concentration (EC50) was 61 nM in experiment [1]; 1000 nM in the experiment with PBMC [4]; more than 20000 nM in the experiment with PBMC [6]; more than 20000 nM in the experiment with PBMC [7]; 902 nM in experiment [2]; 5000 nM in experiment [3]. Further, in the experiment on PBMC [5], the Imax is recorded as 74%.
Regarding `O=S(=O)(c1ccc(F)cc1)N(CC(F)(F)F)c1ccc(C(O)(C(F)(F)F)C(F)(F)F)cc1`, the EC50 in experiment [1] was 19 nM; in the experiment with PBMC [4] it was 132 nM; in the experiment on PBMC [6], more than 20000 nM; in the experiment on PBMC [7], more than 20000 nM; in experiment [2], 385 nM; in experiment [3], 6000 nM. In addition, the Imax in the experiment with PBMC [5] came out at 83%.
